Measurements from patent publication US20250179059A1 (The Regents of the University of California, priority 2021, published 2025).
pIC50: −log10 of the molar value. Read-outs that look alike come from different tables or passages of the source.

Columns and labels:
[1] = target: T1, human BRD4 bromodomain II (Homo sapiens, UniProt O60885); test: Bromodomain binding assay (AlphaScreen), BRD4 BDII
T1 construct: human BRD4 bromodomain II [based on Genbank NM_058243, residues 349-460]; host or cells: E. coli
Method in brief: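 First, His6-tagged BRD4 bromodomain (BDI residues 44-170 or BDII residues 349-460) is incubated with compound for 30 min at room temperature. Next the biotinylated H4 peptide is added for 30 min, then donor and acceptor beads, with 60 min in the dark before AlphaScreen reading and IC50 fitting.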

[2] = system: human SKM-1 acute myeloid leukemia cells; test: SKM-1 antiproliferation cell-based assay (ATPlite)
Method in brief: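 Log-phase cells in RPMI 1640/15% FBS were seeded at 34722 cells/mL and exposed for 4 days to nine-concentration DMSO serial dilutions in triplicate. Viability was read as ATP luminescence (ATPlite 1step), and IC50 values came from variable-slope non-linear regression.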

[3] = AlphaScreen assay, Table C2, read-out: BRD4 BDII IC50
[4] = Homo sapiens, SKM-1, 96 h, SKM-1 antiproliferation assay, 4 days, Table C2
[5] = BRD4 BDII AlphaScreen assay, read-out: BRD4 BD2 IC50
[6] = Homo sapiens, SKM-1, SKM-1 antiproliferation assay

SMILES: Cn1ccn(-c2ccc(-c3cc(F)cc(-c4ccnc(N5CCN(CC(C)(C)C)CC5)c4)c3O)cc2Cl)c1=O [Example 651, 1-(3-chloro-5′-fluoro-2′-hydroxy-3′-(2-(4-neopentylpiperazin-1-yl)pyridin-4-yl)-[1,1′-biphenyl]-4-yl)-3-methyl-1H-imidazol-2(3H)-one]
- pIC50 [1, 3]: 9.00 to 11.00
- GI50 [2, 4]: 30 to 300 nM

SMILES: CCN1CCN(c2cc(-c3cc(F)cc(-c4ccc(-n5ccn(C)c5=O)c(Cl)c4)c3O)cc3[nH]ncc23)CC1 [Example 582]
- pIC50 [1, 3]: 9.00 to 11.00
- GI50 [2, 4]: 0.3 to 30 nM

SMILES: COCC(C)(C)N1CCN(c2cc(-c3cc(F)cc(-c4ccc(-n5ccn(C)c5=O)c(Cl)c4)c3O)cnc2C)CC1 [Example 856]
- pIC50 [1, 5]: 8.00 to 9.00
- GI50 [2, 6]: 0.3 to 30 nM

SMILES: Cn1ccn(-c2ccc(-c3cc(F)cc(-c4cccc(-c5cccc(N)c5)c4)c3O)cc2Cl)c1=O [Example 862]
- pIC50 [1, 5]: 7.00 to 8.00
- GI50 [2, 6]: 300 to 3000 nM

SMILES: O=C1NCCN1c1ccc(-c2cc(F)cc(-c3ccnc(N4CCNCC4)c3)c2O)cc1Cl [Example 373, 1-(3-chloro-5′-fluoro-2′-hydroxy-3′-(2-(piperazin-1-yl)pyridin-4-yl)-[1,1′-biphenyl]-4-yl)imidazolidin-2-one]
- pIC50 [1, 3]: 7.00 to 8.00
- GI50 [2, 4]: 300 to 3000 nM

SMILES: CNc1ncc(-c2nc(C)cc(-c3ccc(-n4ccn(C)c4=O)c(Cl)c3)c2O)cc1N1CCC2(CCN2C(C)C)C1 (centres unmarked) [Example 980, 1-(2-chloro-4-(3-hydroxy-5′-(1-isopropyl-1,6-diazaspiro[3.4]octan-6-yl)-6-methyl-6′-(methylamino)-[2,3′-bipyridin]-4-yl)phenyl)-3-methyl-1H-imidazol-2(3H)-one]
- pIC50 [1, 5]: 8.00 to 9.00
- GI50 [2, 6]: 0.3 to 30 nM

SMILES: CN1CCN(c2cncc(-c3cc(F)cc(-c4ccc(-n5ccn(C)c5=O)c(Cl)c4)c3O)c2)CC1 [Example 465, 1-(3-chloro-5′-fluoro-2′-hydroxy-3′-(5-(4-methylpiperazin-1-yl)pyridin-3-yl)-[1,1′-biphenyl]-4-yl)-3-methyl-1H-imidazol-2(3H)-one]
- pIC50 [1, 3]: 9.00 to 11.00
- GI50 [2, 4]: 0.3 to 30 nM

SMILES: CC(=O)NC1(C)CCN(c2cc(-c3cc(F)cc(-c4ccc(-n5ccn(C)c5=O)c(Cl)c4)c3O)ccn2)CC1 [Example 790, N-(1-(4-(3′-chloro-5-fluoro-2-hydroxy-4′-(3-methyl-2-oxo-2,3-dihydro-1H-imidazol-1-yl)-[1,1′-biphenyl]-3-yl)pyridin-2-yl)-4-methylpiperidin-4-yl)acetamide]
- pIC50 [1, 3]: 9.00 to 11.00
- GI50 [2, 4]: 0.3 to 30 nM

SMILES: Cn1ccn(-c2ccc(-c3cc(F)cc(-c4ccnc(N5CCN(CCN)CC5)c4)c3O)cc2Cl)c1=O [Example 616, 1-(3′-(2-(4-(2-aminoethyl)piperazin-1-yl)pyridin-4-yl)-3-chloro-5′-fluoro-2′-hydroxy-[1,1′-biphenyl]-4-yl)-3-methyl-1H-imidazol-2(3H)-one]
- pIC50 [1, 3]: 9.00 to 11.00
- GI50 [2, 4]: 0.3 to 30 nM

SMILES: Cc1cc(-c2ccc(-n3ccn(C)c3=O)c(C)c2)c(O)c(-c2cnc(C)c(N3CCN(C(C)(C)C)CC3)c2)n1 [Example 1019, 1-(4-(5′-(4-(tert-Butyl)piperazin-1-yl)-3-hydroxy-6,6′-dimethyl-[2,3′-bipyridin]-4-yl)-2-methylphenyl)-3-methyl-1,3-dihydro-2H-imidazol-2-one]
- pIC50 [1, 5]: 8.00 to 9.00
- GI50 [2, 6]: 0.3 to 30 nM

SMILES: CN1CCN(c2ccc(-c3cc(F)cc(-c4ccc(OC5CCNCC5)nc4)c3O)cc2Cl)C1=O [compound 446, 1-(3-chloro-5′-fluoro-2′-hydroxy-3′-(6-(piperidin-4-yloxy)pyridin-3-yl)-[1,1′-biphenyl]-4-yl)-3-methylimidazolidin-2-one]
- pIC50 [1, 3]: 7.00 to 8.00
- GI50 [2, 4]: 300 to 3000 nM

SMILES: COc1ncc(-c2cc(F)cc(-c3ccc(-n4ccn(C)c4=O)c(Cl)c3)c2O)cc1N1CCC2(CCCN2C(C)C)C1 (centres unmarked) [Example 913, 1-(3-chloro-5′-fluoro-2′-hydroxy-3′-(5-(1-isopropyl-1,7-diazaspiro[4.4]nonan-7-yl)-6-methoxypyridin-3-yl)-[1,1′-biphenyl]-4-yl)-3-methyl-1H-imidazol-2(3H)-one]
- pIC50 [1, 5]: 9.00 to 11.00
- GI50 [2, 6]: 0.3 to 30 nM

SMILES: CC(=O)Nc1cc(-c2cc(F)cc(-c3ccc(-n4ccn(C)c4=O)c(Cl)c3)c2O)cc(N2CCN[C@H](C)C2)n1 [Example 544]
- pIC50 [1, 3]: 9.00 to 11.00
- GI50 [2, 4]: 0.3 to 30 nM

SMILES: Cn1ccn(-c2ccc(-c3cc(F)cc(-c4ccnc(N5CC(F)(F)[C@@](C)(O)C5)c4)c3O)cc2Cl)c1=O [Example 881]
- pIC50 [1, 5]: 9.00 to 11.00
- GI50 ([2]; SKM-1 antiproliferation assay): 30 to 300 nM

SMILES: Cn1ccn(-c2ccc(-c3cc(F)cc(-c4ccnc(N5CCN(Cc6ccccc6)CC5)c4)c3O)cc2Cl)c1=O [Example 629, 1-(3′-(2-(4-benzylpiperazin-1-yl)pyridin-4-yl)-3-chloro-5′-fluoro-2′-hydroxy-[1,1′-biphenyl]-4-yl)-3-methyl-1H-imidazol-2(3H)-one]
- pIC50 [1, 3]: 9.00 to 11.00
- GI50 [2, 4]: 30 to 300 nM

SMILES: CC(=O)Nc1ccc(-c2cc(Cl)cc(-c3ccnc(N4CCNCC4)c3)c2O)cc1F [Example 268, N-(5′-chloro-3-fluoro-2′-hydroxy-3′-(2-(piperazin-1-yl)pyridin-4-yl)-[1,1′-biphenyl]-4-yl)acetamide]
- pIC50 [1, 3]: 8.00 to 9.00
- GI50 [2, 4]: 30 to 300 nM

SMILES: CC(C)N1C2CCC1CN(c1cccc(-c3cc(F)cc(-c4ccc(-n5ccn(C)c5=O)c(Cl)c4)c3O)c1)C2 [Example 846, 1-(3-chloro-5′-fluoro-2′-hydroxy-338-(8-isopropyl-3,8-diazabicyclo[3.2.1]octan-3-yl)-[1,1′:3′,1″-terphenyl]-4-yl)-3-methyl-1H-imidazol-2(3H)-one]
- pIC50 [1, 3]: 9.00 to 11.00
- GI50 [2, 4]: 0.3 to 30 nM

SMILES: CCc1cc(-c2cccc(-c3ccc(N4CCN(C)C4=O)c(Cl)c3)c2O)cc(N2CCNCC2)n1 [Example 374, 1-(3-chloro-3′-(2-ethyl-6-(piperazin-1-yl)pyridin-4-yl)-2′-hydroxy-[1,1′-biphenyl]-4-yl)-3-methylimidazolidin-2-one]
- pIC50 [1, 3]: 8.00 to 9.00
- GI50 [2, 4]: 300 to 3000 nM

SMILES: Cn1ccn(-c2ccc(-c3cc(F)cc(-c4cc(Cl)c(F)c(N5CCN(C(C)(C)C)CC5)c4)c3O)cc2Cl)c1=O [Example 904]
- pIC50 [1, 5]: 9.00 to 11.00
- GI50 [2, 6]: 30 to 300 nM

SMILES: Cn1ccn(-c2ccc(-c3cc(F)cc(-c4ccnc(N5CC[C@@H](C(N)=O)C5)c4)c3O)cc2Cl)c1=O [Example 761, (R)-1-(4-(3′-chloro-5-fluoro-2-hydroxy-4′-(3-methyl-2-oxo-2,3-dihydro-1H-imidazol-1-yl)-[1,1′-biphenyl]-3-yl)pyridin-2-yl)pyrrolidine-3-carboxamide]
- pIC50 [1, 3]: 8.00 to 9.00
- GI50 [2, 4]: 30 to 300 nM

SMILES: Cc1ncc(-c2cc(F)cc(-c3ccc(N4CCN(C)C4=O)c(Cl)c3)c2O)cc1N1CCNCC1 [Example 388, 1-(3-chloro-5′-fluoro-2′-hydroxy-3′-(6-methyl-5-(piperazin-1-yl)pyridin-3-yl)-[1,1′-biphenyl]-4-yl)-3-methylimidazolidin-2-one]
- pIC50 [1, 3]: 8.00 to 9.00
- GI50 [2, 4]: 30 to 300 nM

SMILES: COc1ncc(-c2cc(F)cc(-c3ccc(-n4ccn(C)c4=O)c(Cl)c3)c2O)cc1N1CCC2(CCN2C(C)C)C1 (centres unmarked) [Example 879]
- pIC50 [1, 5]: 8.00 to 9.00
- GI50 [2, 6]: 0.3 to 30 nM

SMILES: CC(C)N1CCN(c2cc(-c3cc(F)cc(-c4ccc(-n5ccn(C)c5=O)c(Cl)c4)c3O)ccn2)CC1 [Example 530, 1-(3-chloro-5′-fluoro-2′-hydroxy-3′-(2-(4-isopropylpiperazin-1-yl)pyridin-4-yl)-[1,1′-biphenyl]-4-yl)-3-methyl-1H-imidazol-2(3H)-one]
- pIC50 [1, 3]: 9.00 to 11.00
- GI50 [2, 4]: 0.3 to 30 nM

SMILES: Cc1cc(-c2ccc(-n3ccn(C)c3=O)c(Cl)c2)c(O)c(-c2cc(N3CCN(C(C)(C)C)CC3)c3nccn3c2)n1 [Example 971, 1-(4-(2-(8-(4-(tert-butyl)piperazin-1-yl)imidazo[1,2-a]pyridin-6-yl)-3-hydroxy-6-methylpyridin-4-yl)-2-chlorophenyl)-3-methyl-1H-imidazol-2(3H)-one]
- pIC50 [1, 5]: 9.00 to 11.00
- GI50 [2, 6]: 0.3 to 30 nM

SMILES: COc1ncc(-c2nc(C)cc(-c3ccc(-n4ccn(C)c4=O)c(Cl)c3)c2O)cc1N1CCC2(CCCN2C(C)C)C1 (centres unmarked) [Example 972, 1-(2-chloro-4-(3-hydroxy-5′-(1-isopropyl-1,7-diazaspiro[4.4]nonan-7-yl)-6′-methoxy-6-methyl-[2,3′-bipyridin]-4-yl)phenyl)-3-methyl-1H-imidazol-2(3H)-one]
- pIC50 [1, 5]: 9.00 to 11.00
- GI50 [2, 6]: 0.3 to 30 nM

SMILES: Cn1cc(-c2cccc(N3CCN(C(C)(C)C)CC3)c2)c(O)c(-c2ccc(-n3ccn(C)c3=O)c(Cl)c2)c1=O [Example 1030, 5-(3-(4-(tert-Butyl)piperazin-1-yl)phenyl)-3-(3-chloro-4-(3-methyl-2-oxo-2,3-dihydro-1H-imidazol-1-yl)phenyl)-4-hydroxy-1-methylpyridin-2(1H)-one]
- pIC50 [1, 5]: 7.00 to 8.00
- GI50 [2, 6]: 300 to 3000 nM

SMILES: Cn1ccn(-c2ccc(-c3cc(F)cc(-c4ccnc(N5CC6CCC(C5)C6(C)O)c4)c3O)cc2Cl)c1=O (centres unmarked) [Example 785, 1-(3-chloro-5′-fluoro-2′-hydroxy-3′-(2-(8-hydroxy-8-methyl-3-azabicyclo[3.2.1]octan-3-yl)pyridin-4-yl)-[1,1′-biphenyl]-4-yl)-3-methyl-1H-imidazol-2(3H)-one]
- pIC50 [1, 3]: 8.00 to 9.00
- GI50 [2, 4]: 30 to 300 nM

SMILES: Cc1ccc(-c2cc(F)cc(-c3ccc(-n4ccn(C)c4=O)c(Cl)c3)c2O)cc1N1CCN(C(C)(C)C)CC1 [Example 800, 1-(3″-(4-(tert-butyl)piperazin-1-yl)-3-chloro-5′-fluoro-2′-hydroxy-4″-methyl-[1,1′:3′,1″-terphenyl]-4-yl)-3-methyl-1H-imidazol-2(3H)-one]
- pIC50 [1, 3]: 9.00 to 11.00
- GI50 [2, 4]: 0.3 to 30 nM
